≈ marks a conversion by molar mass, not a printed value. Where two headings read alike, the source gives them in different places.
How the values were obtained:
VRE = assay: Broth microdilution MIC, Example 7 (NCL812 and analogues); format: cell-based, Enterococcus spp.; conditions: Enterococcus, VRE, read-out: MIC
Procedure, shortened: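 Duplicates per isolate, repeated a third time if >one two-fold dilution apart. MIC50, MIC20 and range calculated per bacterial group.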

Pseudomonas aeruginosa = assay: as above; format: cell-based; conditions: Pseudomonas aeruginosa

For `CC1(C)S[C@@H]2[C@H](NC(=O)[C@H](N)c3ccccc3)C(=O)N2[C@H]1C(=O)O` [Ampicillin], the MIC (VRE; VRE 003 [H14t], Phase I, 1st) was 0.5 µg/mL (≈ 1.43 µM), the MIC (VRE; VRE 003 [H14t], Phase I, 2nd) was 0.5 µg/mL (≈ 1.43 µM) and the MIC (VRE; VRE 003 [H14t], Phase II, 1st) was 0.25 µg/mL (≈ 0.715 µM). The MIC (VRE; VRE 003 [H14t], Phase II, 2nd) was 0.25 µg/mL (≈ 0.715 µM), the MIC (VRE; VRE 004 [H16c], Phase I, 1st) was 1 µg/mL (≈ 2.86 µM) and the MIC (VRE; VRE 004 [H16c], Phase I, 2nd) was 1 µg/mL (≈ 2.86 µM). For the same molecule, the MIC (VRE; VRE 004 [H16c], Phase II, 1st) was 0.25 µg/mL (≈ 0.715 µM), the MIC (VRE; VRE 004 [H16c], Phase II, 2nd) was 0.25 µg/mL (≈ 0.715 µM) and the MIC (VRE; VRE 005 [H17c], Phase I, 1st) was 1 µg/mL (≈ 2.86 µM). For the same molecule, the MIC (VRE; VRE 005 [H17c], Phase I, 2nd) was 1 µg/mL (≈ 2.86 µM), the MIC (VRE; VRE 005 [H17c], Phase II, 1st) was 0.25 µg/mL (≈ 0.715 µM) and the MIC (VRE; VRE 005 [H17c], Phase II, 2nd) was 0.25 µg/mL (≈ 0.715 µM). It also gave an MIC (VRE; VRE 006 [H19t], Phase I, 1st) of 1 µg/mL (≈ 2.86 µM), an MIC (VRE; VRE 006 [H19t], Phase I, 2nd) of 1 µg/mL (≈ 2.86 µM) and an MIC (VRE; VRE 006 [H19t], Phase II, 1st) of 0.25 µg/mL (≈ 0.715 µM). The MIC (VRE; VRE 006 [H19t], Phase II, 2nd) was 0.25 µg/mL (≈ 0.715 µM), the MIC (VRE; VRE 007 [H23c], Phase I, 1st) was 1 µg/mL (≈ 2.86 µM) and the MIC (VRE; VRE 007 [H23c], Phase I, 2nd) was 1 µg/mL (≈ 2.86 µM). For the same molecule, the MIC (VRE; VRE 007 [H23c], Phase II, 1st) was 0.25 µg/mL (≈ 0.715 µM), the MIC (VRE; VRE 007 [H23c], Phase II, 2nd) was 0.25 µg/mL (≈ 0.715 µM) and the MIC (VRE; VRE 008 [H16c(dc)], Phase I, 1st) was 1 µg/mL (≈ 2.86 µM). The MIC (VRE; VRE 008 [H16c(dc)], Phase I, 2nd) was 1 µg/mL (≈ 2.86 µM), the MIC (VRE; VRE 008 [H16c(dc)], Phase II, 1st) was 1 µg/mL (≈ 2.86 µM) and the MIC (VRE; VRE 008 [H16c(dc)], Phase II, 2nd) was 1 µg/mL (≈ 2.86 µM). The MIC (VRE; VRE 009 [H25c], Phase I, 1st) was 1 µg/mL (≈ 2.86 µM), the MIC (VRE; VRE 009 [H25c], Phase I, 2nd) was 1 µg/mL (≈ 2.86 µM) and the MIC (VRE; VRE 009 [H25c], Phase II, 1st) was 1 µg/mL (≈ 2.86 µM). For the same molecule, the MIC (VRE; VRE 009 [H25c], Phase II, 2nd) was 1 µg/mL (≈ 2.86 µM), the MIC (VRE; VRE 010 [H26c(w)], Phase I, 1st) was 2 µg/mL (≈ 5.72 µM) and the MIC (VRE; VRE 010 [H26c(w)], Phase I, 2nd) was 2 µg/mL (≈ 5.72 µM). It also gave an MIC (VRE; VRE 010 [H26c(w)], Phase II, 1st) of 1 µg/mL (≈ 2.86 µM), an MIC (VRE; VRE 010 [H26c(w)], Phase II, 2nd) of 1 µg/mL (≈ 2.86 µM) and an MIC (VRE; VRE 011 [H26c(dc)], Phase I, 1st) of 1 µg/mL (≈ 2.86 µM). It also gave an MIC (VRE; VRE 011 [H26c(dc)], Phase I, 2nd) of 1 µg/mL (≈ 2.86 µM), an MIC (VRE; VRE 011 [H26c(dc)], Phase II, 1st) of 0.5 µg/mL (≈ 1.43 µM) and an MIC (VRE; VRE 011 [H26c(dc)], Phase II, 2nd) of 0.5 µg/mL (≈ 1.43 µM). It also gave an MIC (VRE; VRE 012 [H35t], Phase I, 1st) of 0.5 µg/mL (≈ 1.43 µM), an MIC (VRE; VRE 012 [H35t], Phase I, 2nd) of 0.5 µg/mL (≈ 1.43 µM) and an MIC (VRE; VRE 012 [H35t], Phase II, 1st) of 0.25 µg/mL (≈ 0.715 µM). For the same molecule, the MIC (VRE; VRE 012 [H35t], Phase II, 2nd) was 0.5 µg/mL (≈ 1.43 µM), the MIC (VRE; VRE 013 [H37c(w)], Phase I, 1st) was 2 µg/mL (≈ 5.72 µM) and the MIC (VRE; VRE 013 [H37c(w)], Phase I, 2nd) was 2 µg/mL (≈ 5.72 µM). For the same molecule, the MIC (VRE; VRE 013 [H37c(w)], Phase II, 1st) was 1 µg/mL (≈ 2.86 µM), the MIC (VRE; VRE 013 [H37c(w)], Phase II, 2nd) was 1 µg/mL (≈ 2.86 µM) and the MIC (VRE; VRE 014 [H37c(g)], Phase I, 1st) was 1 µg/mL (≈ 2.86 µM). For the same molecule, the MIC (VRE; VRE 014 [H37c(g)], Phase I, 2nd) was 1 µg/mL (≈ 2.86 µM), the MIC (VRE; VRE 014 [H37c(g)], Phase II, 1st) was 1 µg/mL (≈ 2.86 µM) and the MIC (VRE; VRE 014 [H37c(g)], Phase II, 2nd) was 1 µg/mL (≈ 2.86 µM). It also gave an MIC (Pseudomonas aeruginosa; 24 h, read-out: MIC (μg/ml) at 24 hours, P. aeruginosa, 24 hours, 1st and 2nd replicate rows) greater than 128 µg/mL, an MIC (Pseudomonas aeruginosa; P. aeruginosa, 1st, read-out: MIC) greater than 128 µg/mL and an MIC (Pseudomonas aeruginosa; P. aeruginosa, 2nd, read-out: MIC) greater than 128 µg/mL.

Reference: patent publication US10253002B2, “Compounds and methods of treating infections” (Neoculi Pty Ltd., priority 2013, dated 2019)
